Results reported in US20230086702A1, “SUBSTITUTED 2-AMINO-PYRAZOLYL-[1,2,4]TRIAZOLO[1,5A]PYRIDINE DERIVATIVES AND USE THEREOF” (The Johns Hopkins University, priority 2019, published 2023).

Legend:
DLK = target: T1, DLK (Homo sapiens, UniProt Q12852); assay: DLK biochemical assay (TR-FRET, MKK7 phosphorylation)
T1 construct: 10 nM DLK, catalytic domain, Carna Biosiences; purchased Carna Biosciences ('Carna Biosiences' [sic])
T1 sequence (Q12852 125-366 limits assumed): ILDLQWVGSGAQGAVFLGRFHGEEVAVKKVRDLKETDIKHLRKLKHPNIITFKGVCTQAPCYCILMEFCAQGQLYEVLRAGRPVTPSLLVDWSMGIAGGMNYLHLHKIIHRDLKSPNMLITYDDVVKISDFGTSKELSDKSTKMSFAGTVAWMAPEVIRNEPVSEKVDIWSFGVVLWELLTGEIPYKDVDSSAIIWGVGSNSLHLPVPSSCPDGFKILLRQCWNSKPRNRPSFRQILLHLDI
In short: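 DLK catalytic domain (10 nM) phosphorylates His-MKK7 (15 nM) at 60 μM ATP for 90 min at RT in pH 7.5 Hepes buffer (final concentrations). Phospho-T275/S277 is detected by TR-FRET (Eu anti-phospho donor, XL665 anti-His acceptor) after 16 h at 37° C (1536 format) or 4° C (384 format).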

LZK = target: T2, LZK (Homo sapiens, UniProt O43283); assay: LZK biochemical assay (TR-FRET, MKK7 phosphorylation)
T2 construct: 10 nM LZK, catalytic domain, Carna Biosiences in assay buffer; purchased Carna Biosciences ('Carna Biosiences' [sic])
T2 sequence (O43283 168-409 limits assumed): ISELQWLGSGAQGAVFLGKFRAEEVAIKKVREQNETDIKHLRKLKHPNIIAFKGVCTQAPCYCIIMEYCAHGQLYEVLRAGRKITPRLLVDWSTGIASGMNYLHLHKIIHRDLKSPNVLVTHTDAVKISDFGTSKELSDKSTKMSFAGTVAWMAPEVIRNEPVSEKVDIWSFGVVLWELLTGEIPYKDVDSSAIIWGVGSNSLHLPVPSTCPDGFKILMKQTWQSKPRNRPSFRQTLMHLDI
In short: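 LZK catalytic domain (10 nM) phosphorylates His-MKK7 (15 nM) with 15 µM ATP, all final, for 90 min at RT in HEPES buffer pH 7.5 with MgCl2. Phospho-T275/S277 detected by TR-FRET (Eu anti-phospho donor, XL665 anti-His acceptor) after 16 h at 32 °C in EDTA stop buffer. Inhibition lowers the 665/Eu ratio.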

Row | SMILES | IC50 (DLK) [nM] | IC50 (LZK) [nM]
1 | Nc1nc2cc(-c3cnn(Cc4ccccc4)c3)cc(-c3ccc(C4CC4)nc3)n2n1 [II-47, 7-(1-Benzyl-1H-pyrazol-4-yl)-5-(6-cyclopropylpyridin-3-yl)[1,2,4]triazolo[1,5-a]pyridin-2-amine] | 33 | 120
2 | Nc1nc2cc(-c3cnn(Cc4ccccc4)c3)cc(-c3cnc(C4CC4)nc3)n2n1 [II-84, 7-(1-Benzyl-1H-pyrazol-4-yl)-5-(2-cyclopropylpyrimidin-5-yl)[1,2,4]triazolo[1,5-a]pyridin-2-amine] | 55 | 290
3 | Nc1nc2cc(-c3cnn(Cc4ccccc4)c3)cc(-c3cnccn3)n2n1 [II-86, 7-(1-Benzyl-1H-pyrazol-4-yl)-5-(pyrazin-2-yl)[1,2,4]triazolo[1,5-a]pyridin-2-amine] | 54 | 900
4 | CCc1cnc(-c2cc(-c3cnn(Cc4ccccc4)c3)cc3nc(N)nn23)cn1 [II-87, 7-(1-Benzyl-1H-pyrazol-4-yl)-5-(5-ethylpyrazin-2-yl)[1,2,4]triazolo[1,5-a]pyridin-2-amine] | 42 | 530
5 | CC[C@@H](c1ccccc1)n1cc(-c2cc(-c3cnn(C)c3)c3nc(N)nn3c2)cn1 [II-90, 8-(1-Methyl-1H-pyrazol-4-yl)-6-{1-[(1S)-1-phenylpropyl]-1H-pyrazol-4-yl}[1,2,4]triazolo[1,5-a]pyridin-2-amine] | 6.5 | 230
6 | CC[C@@H](c1ccccc1)n1cc(-c2cc(-c3cnn(CC(F)(F)F)c3)c3nc(N)nn3c2)cn1 [II-93, 6-{1-[(1S)-1-Phenylpropyl]-1H-pyrazol-4-yl}-8-[1-(2,2,2-trifluoroethyl)-1H-pyrazol-4-yl][1,2,4]triazolo[1,5-a]pyridin-2-amine] | 19 | 68
7 | CC[C@@H](c1ccccc1)n1cc(-c2cc(-c3cnn(CCO)c3)c3nc(N)nn3c2)cn1 [II-97, 2-[4-(2-Amino-6-{1-[(1S)-1-phenylpropyl]-1H-pyrazol-4-yl}[1,2,4]triazolo[1,5-a]pyridin-8-yl)-1H-pyrazol-1-yl]ethan-1-ol] | 8.1 | 380
8 | Nc1nc2cc(-c3cnn(Cc4ccccc4)c3)cc(-c3cnn(C(F)F)c3)n2n1 [II-121, 7-(1-Benzyl-1H-pyrazol-4-yl)-5-[1-(difluoromethyl)-1H-pyrazol-4-yl][1,2,4]triazolo[1,5-a]pyridin-2-amine] | 32 | 150
9 | Nc1nc2cc(-c3cnn(Cc4ccccc4)c3)cc(-c3cnn(CC4CC4(F)F)c3)n2n1 (stereo not drawn) [II-124] | 7.1 | 73
10 | Nc1nc2cc(-c3cnn(Cc4ccccc4)c3)cc(-c3cnn(C4CCOC4)c3)n2n1 (stereo not drawn) [II-125] | 17 | 160
11 | CC[C@@H](c1ccccc1)n1cc(-c2cc(-c3cnn(CC(F)(F)F)c3)n3nc(N)nc3c2)cn1 [II-127, 7-{1-[(1S)-1-Phenylpropyl]-1H-pyrazol-4-yl}-5-[1-(2,2,2-trifluoroethyl)-1H-pyrazol-4-yl][1,2,4]triazolo[1,5-a]pyridin-2-amine] | 8.4 | 99
12 | Nc1nc2cc(-c3cnn(Cc4ccnc(OC(F)(F)F)c4)c3)cc(-c3cnn(CC(F)(F)F)c3)n2n1 [II-135, 5-[1-(2,2,2-Trifluoroethyl)-1H-pyrazol-4-yl]-7-(1-{[2-(trifluoromethoxy)pyridin-4-yl]methyl}-1H-pyrazol-4-yl)[1,2,4]triazolo[1,5-a]pyridin-2-amine] | 19 | 70
13 | CC(C)C(c1ccc(C(F)(F)F)nc1)n1cc(-c2cc(-c3cnn(CC(F)(F)F)c3)n3nc(N)nc3c2)cn1 (stereo not drawn) [II-139] | 11 | 27
14 | CC(C)[C@@H](c1ccc(C(F)(F)F)nc1)n1cc(-c2cc(-c3cnn(CC(F)(F)F)c3)n3nc(N)nc3c2)cn1 [II-140] | 3 | 13
15 | CC(C)C(c1ccc(C(F)(F)F)nc1)n1cc(-c2cc(-c3cnn(C4CCCC4)c3)n3nc(N)nc3c2)cn1 (stereo not drawn) [II-143] | 2.5 | 15
16 | CC(C)[C@@H](c1ccc(C(F)(F)F)nc1)n1cc(-c2cc(-c3cnn(C4CCCC4)c3)n3nc(N)nc3c2)cn1 [II-145] | 3.3 | 9.9
17 | Nc1nc2cc(-c3cnn(C(c4ccccc4)C4CCNCC4)c3)cc(-c3cnn(CC(F)(F)F)c3)n2n1 (stereo not drawn) [II-152] | 1.4 | 16
18 | Nc1nc2c(-c3ccc(=O)n(C(F)F)c3)cc(-c3cnn(C(c4ccc(C(F)(F)F)nc4)C4CCOCC4)c3)cn2n1 (stereo not drawn) [II-153] | 1.4 | 3.5

More lines, now with the values ahead:

Row | IC50 (DLK) [nM] | IC50 (LZK) [nM] | SMILES
19 | 750 | 380 | Nc1nc2c(-c3ccc(C(F)(F)F)nc3)cc(-c3cnn(C4CCN(C5COC5)CC4)c3)cn2n1 [II-46, 6-{1-[1-(Oxetan-3-yl)piperidin-4-yl]-1H-pyrazol-4-yl}-8-[6-(trifluoromethyl)pyridin-3-yl][1,2,4]triazolo[1,5-a]pyridin-2-amine]
20 | 210 | 110 | Nc1nc2cc(-c3cnn(C4CCN(C5COC5)CC4)c3)cc(-c3ccc(C4CC4)nc3)n2n1 [II-83, 5-(6-Cyclopropylpyridin-3-yl)-7-{1-[1-(oxetan-3-yl)piperidin-4-yl]-1H-pyrazol-4-yl}[1,2,4]triazolo[1,5-a]pyridin-2-amine]
21 | 480 | 620 | Cc1cc(-c2cc(-c3cnn(Cc4ccccc4)c3)cc3nc(N)nn23)cnn1 [II-88, 7-(1-Benzyl-1H-pyrazol-4-yl)-5-(6-methylpyridazin-4-yl)[1,2,4]triazolo[1,5-a]pyridin-2-amine]
22 | 5.2 | 115 | CC[C@@H](c1ccccc1)n1cc(-c2cc(-c3cnn(CC)c3)c3nc(N)nn3c2)cn1 [II-91, 8-(1-Ethyl-1H-pyrazol-4-yl)-6-{1-[(1S)-1-phenylpropyl]-1H-pyrazol-4-yl}[1,2,4]triazolo[1,5-a]pyridin-2-amine]
23 | 6.7 | 150 | CC[C@@H](c1ccccc1)n1cc(-c2cc(-c3cnn(C4CC4)c3)c3nc(N)nn3c2)cn1 [II-92, 8-(1-Cyclopropyl-1H-pyrazol-4-yl)-6-{1-[(1S)-1-phenylpropyl]-1H-pyrazol-4-yl}[1,2,4]triazolo[1,5-a]pyridin-2-amine]
24 | 14 | 56 | CC[C@@H](c1ccc(F)cc1)n1cc(-c2cc(-c3cnn(CC(F)(F)F)c3)c3nc(N)nn3c2)cn1 [II-98, 6-{1-[(1S)-1-(4-fluorophenyl)propyl]-1H-pyrazol-4-yl}-8-[1-(2,2,2-trifluoroethyl)-1H-pyrazol-4-yl][1,2,4]triazolo[1,5-a]pyridin-2-amine]
25 | 240 | 140 | Nc1nc2c(-c3cnn(CC(F)(F)F)c3)cc(-c3cnn(C4CCN(C5COC5)CC4)c3)cn2n1 [II-120, 6-{1-[1-(Oxetan-3-yl)piperidin-4-yl]-1H-pyrazol-4-yl}-8-[1-(2,2,2-trifluoroethyl)-1H-pyrazol-4-yl][1,2,4]triazolo[1,5-a]pyridin-2-amine]
26 | 39 | 37 | CC(n1cc(-c2cc(-c3cnn(Cc4ccccc4)c3)cc3nc(N)nn23)cn1)C(F)(F)F (stereo not drawn) [II-122]
27 | 53 | 150 | N#CCC(n1cc(-c2cc(-c3cnn(Cc4ccccc4)c3)cc3nc(N)nn23)cn1)C(F)(F)F (stereo not drawn) [II-123]
28 | 60 | 220 | Nc1nc2cc(-c3cnn(Cc4ccccc4)c3)cc(-c3cnn(C4CCOCC4)c3)n2n1 [II-126, 7-(1-Benzyl-1H-pyrazol-4-yl)-5-[1-(tetrahydro-2H-pyran-4-yl)-1H-pyrazol-4-yl][1,2,4]triazolo[1,5-a]pyridin-2-amine]
29 | 15 | 160 | CC[C@@H](c1ccc(F)cc1)n1cc(-c2cc(-c3cnn(CC(F)(F)F)c3)n3nc(N)nc3c2)cn1 [II-128]
30 | 69 | 170 | CCC(c1ccc(C(F)(F)F)cc1)n1cc(-c2cc(-c3cnn(CC(F)(F)F)c3)n3nc(N)nc3c2)cn1 (stereo not drawn) [II-129]
31 | 71 | 120 | CCC(c1ccc(C(F)(F)F)cc1)n1cc(-c2cc(-c3cnn(C4CCCC4)c3)n3nc(N)nc3c2)cn1 (stereo not drawn) [II-132]
32 | 3.4 | 48 | COc1cc(C(C(C)C)n2cc(-c3cc(-c4cnn(CC(F)(F)F)c4)n4nc(N)nc4c3)cn2)ccn1 (stereo not drawn) [II-136]
33 | 1.7 | 29 | COc1cc([C@H](C(C)C)n2cc(-c3cc(-c4cnn(CC(F)(F)F)c4)n4nc(N)nc4c3)cn2)ccn1 [II-138]
34 | 8.4 | 12 | CC(C)C(c1ccc(C(F)(F)F)nc1)n1cc(-c2cc(-c3cnn(CC4CC4(F)F)c3)n3nc(N)nc3c2)cn1 (stereo not drawn) [II-142]
35 | 3.6 | 200 | Nc1nc2cc(-c3cnn(C(c4ccccc4)C4CCOCC4)c3)cc(-c3cnn(CC(F)(F)F)c3)n2n1 (stereo not drawn) [II-146]
36 | 2.9 | 4.7 | Nc1nc2cc(-c3cnn(C(c4ccc(C(F)(F)F)nc4)C4CCOCC4)c3)cc(-c3cnn(CC(F)(F)F)c3)n2n1 (stereo not drawn) [II-149]
